The molecules below were run on late watergrass (assay: Test Example 1: herbicidal activity, application before weed generation under submerged conditions (Table 16, symbol A)). Conditions: amount of applied herbicide 320 g/ha.
Assay type: in vivo, late watergrass (Echinochloa oryzicola)
Method in brief: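 Alluvial soil was flooded to 4 cm depth, weed seeds were sown mixed and 2.5-leaf rice seedlings were transplanted. On sowing day, the compound's emulsion, diluted in water to a set dose, was applied to the water surface. Plants grew at 25–30 °C and were scored 0–5 after three weeks.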

Compound	Herbicidal effect, A: late watergrass
CCCC(=O)Oc1c(C)nn(C)c(=O)c1-c1c(-c2ccc(OC)cc2)sc2cc(F)ccc12 [3-008]	5 (Herbicidal rate of 90% or more (almost completely withered))
COc1cc(F)ccc1-c1sc2cc(F)ccc2c1-c1c(O)c(C)nn(C)c1=O [3-009]	1 (Herbicidal rate of 5% or more and less than 20%)

Each molecule was assayed on oval-leafed pondweed (assay: Test Example 2: herbicidal activity, application during weed generation under submerged conditions (Table 17, symbol C)). Conditions: AAH 320 g/ha; application during weed generation, submerged conditions.
Assay type: in vivo, oval-leafed pondweed (Monochoria vaginalis)
Method in brief: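 Alluvial soil in Wagner pots was flooded to 4 cm depth and sown with the three weeds together; pots were kept in a greenhouse at 25° C. to 30° C. At the one to two leaf stage, an emulsion formulation diluted in water to a set rate went onto the water surface; scored three weeks later.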

Compound	herbicidal effect rating, C: oval-leafed pondweed
CCCC(=O)Oc1c(C)nn(C)c(=O)c1-c1c(-c2ccc(OC)cc2)sc2cc(F)ccc12 [3-008]	4 (Herbicidal rate of 70% or more and less than 90%)
COc1cc(F)ccc1-c1sc2cc(F)ccc2c1-c1c(O)c(C)nn(C)c1=O [3-009]	3 (Herbicidal rate of 40% or more and less than 70%)

These molecules were tested on barnyard grass (assay: Test Example 3: herbicidal effect by foliage application, Wagner pot (Table 18, symbol H)). Conditions: amount of applied herbicide 320 g/ha.
Assay type: in vivo, barnyard grass (Echinochloa crus-galli)
Method in brief: (§1)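 Plants were sown in alluvial soil held under 0.1–0.5 cm standing water and grown 14 days in a greenhouse at 25–30 °C. An emulsifiable formulation, water-diluted to the set dose, was then sprayed onto the foliage, and effects were scored three weeks later using previously defined criteria.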

Compound	herbicidal effect on H: barnyard grass
CCCC(=O)Oc1c(C)nn(C)c(=O)c1-c1c(-c2ccc(OC)cc2)sc2cc(F)ccc12 [3-008]	4 (Herbicidal rate of 70% or more and less than 90%)
COc1cc(F)ccc1-c1sc2cc(F)ccc2c1-c1c(O)c(C)nn(C)c1=O [3-009]	5 (Herbicidal rate of 90% or more (almost completely withered))

Each molecule was assayed on Chinese sprangletop (assay: Test Example 3: herbicidal effect by foliage application, Wagner pot (Table 18, symbol D)). Conditions: amount of applied herbicide 320 g/ha.
Assay type: in vivo, chinese sprangletop (Leptochloa chinensis)
Method in brief: as §1

Compound	herbicidal effect on D: Chinese sprangletop
CCCC(=O)Oc1c(C)nn(C)c(=O)c1-c1c(-c2ccc(OC)cc2)sc2cc(F)ccc12 [3-008]	4 (Herbicidal rate of 70% or more and less than 90%)
COc1cc(F)ccc1-c1sc2cc(F)ccc2c1-c1c(O)c(C)nn(C)c1=O [3-009]	5 (Herbicidal rate of 90% or more (almost completely withered))

The molecules below were run on southern crabgrass (assay: Test Example 4: herbicidal effect by soil treatment (Table 19, symbol F)). Conditions: amount of applied herbicide 320 g/ha.
Assay type: in vivo, southern crabgrass (Digitaria ciliaris)
Method in brief: (§2)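 Seeds were sown in sterilized diluvial soil and covered with about 1.5 cm of soil. An emulsion formulation diluted with water to a predetermined herbicide amount was sprayed evenly onto the soil surface. Plants grew in a greenhouse at 25° C. to 30° C., and the effect was scored three weeks after application using criteria from an earlier test.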

Compound	herbicidal effect, F: southern crabgrass
CCCC(=O)Oc1c(C)nn(C)c(=O)c1-c1c(-c2ccc(OC)cc2)sc2cc(F)ccc12 [3-008]	0 (Herbicidal rate of 5% or less (almost no effect))
COc1cc(F)ccc1-c1sc2cc(F)ccc2c1-c1c(O)c(C)nn(C)c1=O [3-009]	5 (Herbicidal rate of 90% or more (almost completely withered))

These molecules were tested on green foxtail (assay: Test Example 4: herbicidal effect by soil treatment (Table 19, symbol G)). Conditions: amount of applied herbicide 320 g/ha.
Assay type: in vivo, green foxtail (Setaria viridis)
Method in brief: as §2

Compound	herbicidal effect, G: green foxtail
CCCC(=O)Oc1c(C)nn(C)c(=O)c1-c1c(-c2ccc(OC)cc2)sc2cc(F)ccc12 [3-008]	0 (Herbicidal rate of 5% or less (almost no effect))
COc1cc(F)ccc1-c1sc2cc(F)ccc2c1-c1c(O)c(C)nn(C)c1=O [3-009]	4 (Herbicidal rate of 70% or more and less than 90%)

The molecules below were run on barnyard grass (assay: Test Example 4: herbicidal effect by soil treatment (Table 19, symbol H)). Conditions: amount of applied herbicide 320 g/ha.
Assay type: in vivo, barnyard grass (Echinochloa crus-galli)
Method in brief: as §2

Compound	herbicidal effect, H: barnyard grass
CCCC(=O)Oc1c(C)nn(C)c(=O)c1-c1c(-c2ccc(OC)cc2)sc2cc(F)ccc12 [3-008]	0 (Herbicidal rate of 5% or less (almost no effect))
COc1cc(F)ccc1-c1sc2cc(F)ccc2c1-c1c(O)c(C)nn(C)c1=O [3-009]	5 (Herbicidal rate of 90% or more (almost completely withered))

What follows are molecules tested on blackgrass (assay: Test Example 4: herbicidal effect by soil treatment (Table 19, symbol J)). Conditions: amount of applied herbicide 320 g/ha.
Assay type: in vivo, blackgrass (Alopecurus myosuroides)
Method in brief: as §2

Compound	herbicidal effect, J: blackgrass
CCCC(=O)Oc1c(C)nn(C)c(=O)c1-c1c(-c2ccc(OC)cc2)sc2cc(F)ccc12 [3-008]	0 (Herbicidal rate of 5% or less (almost no effect))
COc1cc(F)ccc1-c1sc2cc(F)ccc2c1-c1c(O)c(C)nn(C)c1=O [3-009]	4 (Herbicidal rate of 70% or more and less than 90%)

The molecules below were run on windgrass (assay: Test Example 4: herbicidal effect by soil treatment (Table 19, symbol L)). Conditions: amount of applied herbicide 320 g/ha.
Assay type: in vivo, windgrass (Apera spica-venti)
Method in brief: as §2

Compound	herbicidal effect, L: windgrass
CCCC(=O)Oc1c(C)nn(C)c(=O)c1-c1c(-c2ccc(OC)cc2)sc2cc(F)ccc12 [3-008]	0 (Herbicidal rate of 5% or less (almost no effect))
COc1cc(F)ccc1-c1sc2cc(F)ccc2c1-c1c(O)c(C)nn(C)c1=O [3-009]	5 (Herbicidal rate of 90% or more (almost completely withered))

Each molecule was assayed on redroot pigweed (assay: Test Example 4: herbicidal effect by soil treatment (Table 19, symbol N)). Conditions: amount of applied herbicide 320 g/ha.
Assay type: in vivo, redroot pigweed (Amaranthus retroflexus)
Method in brief: as §2

Compound	herbicidal effect, N: redroot pigweed
CCCC(=O)Oc1c(C)nn(C)c(=O)c1-c1c(-c2ccc(OC)cc2)sc2cc(F)ccc12 [3-008]	5 (Herbicidal rate of 90% or more (almost completely withered))
COc1cc(F)ccc1-c1sc2cc(F)ccc2c1-c1c(O)c(C)nn(C)c1=O [3-009]	5 (Herbicidal rate of 90% or more (almost completely withered))

These molecules were tested on chickweed (assay: Test Example 4: herbicidal effect by soil treatment (Table 19, symbol P)). Conditions: amount of applied herbicide 320 g/ha.
Assay type: in vivo, common chickweed (Stellaria media)
Method in brief: as §2

Compound	herbicidal effect, P: chickweed
CCCC(=O)Oc1c(C)nn(C)c(=O)c1-c1c(-c2ccc(OC)cc2)sc2cc(F)ccc12 [3-008]	5 (Herbicidal rate of 90% or more (almost completely withered))
COc1cc(F)ccc1-c1sc2cc(F)ccc2c1-c1c(O)c(C)nn(C)c1=O [3-009]	4 (Herbicidal rate of 70% or more and less than 90%)

These molecules were tested on southern crabgrass (assay: Test Example 5: herbicidal effect by foliage application, plastic box (Table 20, symbol F)). Conditions: foliage application, 320 g/ha, three weeks after application.
Assay type: in vivo, southern crabgrass (Digitaria ciliaris)
Method in brief: (§3)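 Plants sown in sterilized diluvial soil and grown 14 days in a greenhouse at 25° C to 30° C, then sprayed on the foliage with the compound's emulsion diluted in water to a predetermined herbicide amount. Injury to weeds and crops scored three weeks after application on a visual rating scale.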

Compound	F: southern crabgrass, herbicidal effect grade
CCCC(=O)Oc1c(C)nn(C)c(=O)c1-c1c(-c2ccc(OC)cc2)sc2cc(F)ccc12 [3-008]	4 (Herbicidal rate of 70% or more and less than 90%)
COc1cc(F)ccc1-c1sc2cc(F)ccc2c1-c1c(O)c(C)nn(C)c1=O [3-009]	5 (Herbicidal rate of 90% or more (almost completely withered))

What follows are molecules tested on green foxtail (assay: Test Example 5: herbicidal effect by foliage application, plastic box (Table 20, symbol G)). Conditions: foliage application, 320 g/ha, three weeks after application.
Assay type: in vivo, green foxtail (Setaria viridis)
Method in brief: as §3

Compound	G: green foxtail, herbicidal effect grade
CCCC(=O)Oc1c(C)nn(C)c(=O)c1-c1c(-c2ccc(OC)cc2)sc2cc(F)ccc12 [3-008]	3 (Herbicidal rate of 40% or more and less than 70%)
COc1cc(F)ccc1-c1sc2cc(F)ccc2c1-c1c(O)c(C)nn(C)c1=O [3-009]	5 (Herbicidal rate of 90% or more (almost completely withered))

These molecules were tested on blackgrass (assay: Test Example 5: herbicidal effect by foliage application, plastic box (Table 20, symbol J)). Conditions: foliage application, 320 g/ha, three weeks after application.
Assay type: in vivo, blackgrass (Alopecurus myosuroides)
Method in brief: as §3

Compound	J: blackgrass, herbicidal effect grade
CCCC(=O)Oc1c(C)nn(C)c(=O)c1-c1c(-c2ccc(OC)cc2)sc2cc(F)ccc12 [3-008]	1 (Herbicidal rate of 5% or more and less than 20%)
COc1cc(F)ccc1-c1sc2cc(F)ccc2c1-c1c(O)c(C)nn(C)c1=O [3-009]	5 (Herbicidal rate of 90% or more (almost completely withered))

These molecules were tested on redroot pigweed (assay: Test Example 5: herbicidal effect by foliage application, plastic box (Table 20, symbol N)). Conditions: foliage application, 320 g/ha, three weeks after application.
Assay type: in vivo, redroot pigweed (Amaranthus retroflexus)
Method in brief: as §3

Compound	N: redroot pigweed, herbicidal effect grade
CCCC(=O)Oc1c(C)nn(C)c(=O)c1-c1c(-c2ccc(OC)cc2)sc2cc(F)ccc12 [3-008]	5 (Herbicidal rate of 90% or more (almost completely withered))
COc1cc(F)ccc1-c1sc2cc(F)ccc2c1-c1c(O)c(C)nn(C)c1=O [3-009]	5 (Herbicidal rate of 90% or more (almost completely withered))

Each molecule was assayed on false cleavers (assay: Test Example 5: herbicidal effect by foliage application, plastic box (Table 20, symbol Q)). Conditions: foliage application, 320 g/ha, three weeks after application.
Assay type: in vivo, false cleavers (Galium spurium)
Method in brief: as §3

Compound	Q: false cleavers, herbicidal effect grade
CCCC(=O)Oc1c(C)nn(C)c(=O)c1-c1c(-c2ccc(OC)cc2)sc2cc(F)ccc12 [3-008]	4 (Herbicidal rate of 70% or more and less than 90%)
COc1cc(F)ccc1-c1sc2cc(F)ccc2c1-c1c(O)c(C)nn(C)c1=O [3-009]	5 (Herbicidal rate of 90% or more (almost completely withered))

These molecules were tested on persian speedwell (assay: Test Example 5: herbicidal effect by foliage application, plastic box (Table 20, symbol R)). Conditions: foliage application, 320 g/ha, three weeks after application.
Assay type: in vivo, Persian speedwell (Veronica persica)
Method in brief: as §3

Compound	R: persian speedwell, herbicidal effect grade
CCCC(=O)Oc1c(C)nn(C)c(=O)c1-c1c(-c2ccc(OC)cc2)sc2cc(F)ccc12 [3-008]	5 (Herbicidal rate of 90% or more (almost completely withered))
COc1cc(F)ccc1-c1sc2cc(F)ccc2c1-c1c(O)c(C)nn(C)c1=O [3-009]	5 (Herbicidal rate of 90% or more (almost completely withered))

From patent US20230085307A1, “PYRIDAZINONE COMPOUND AND HERBICIDE” (NISSAN CHEMICAL CORPORATION, priority 2019, published 2023)
